In ChEMBL document CHEMBL1131207, “Discovery and evaluation of a series of 3-acylindole imidazopyridine platelet-activating factor antagonists” (J Med Chem, 1998):

Columns and labels:
[1] = target: Platelet-activating factor receptor (Rattus norvegicus) (UniProt P46002); assay: Ability to block the effect of exogenously administered PAF upon intravenous administration in PAF-induced rat skin permeability assay; format: functional, organism-based
[2] = target: Platelet-activating factor receptor (Rattus norvegicus) (UniProt P46002); assay: Tested in vivo for to block the effect of exogenously administered PAF upon oral administration in PAF-induced rat skin permeability assay; format: functional, organism-based

Sequence of Platelet-activating factor receptor (Rattus norvegicus) (P46002 whole entry): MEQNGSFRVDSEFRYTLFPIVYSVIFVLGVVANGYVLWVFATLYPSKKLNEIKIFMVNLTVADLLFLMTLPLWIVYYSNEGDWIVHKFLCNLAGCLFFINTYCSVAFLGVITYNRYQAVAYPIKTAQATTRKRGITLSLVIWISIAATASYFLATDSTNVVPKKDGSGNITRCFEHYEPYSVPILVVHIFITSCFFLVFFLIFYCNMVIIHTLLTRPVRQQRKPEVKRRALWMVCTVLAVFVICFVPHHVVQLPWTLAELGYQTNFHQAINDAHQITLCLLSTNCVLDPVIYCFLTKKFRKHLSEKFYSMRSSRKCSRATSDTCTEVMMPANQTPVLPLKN

SMILES	ED50 [1]	ED50 [2]
Cc1nc2cnccc2n1Cc1ccc(C(=O)c2c[nH]c3c(OCc4ccccc4)cccc23)cc1	0.24 mg/kg	–
COC(=O)c1cccc2c1c(C(=O)c1ccc(Cn3c(C)nc4ccncc43)cc1)cn2C(=O)N(C)C	0.24 mg/kg	–
COC(=O)c1cccc2c1c(C(=O)c1ccc(Cn3c(C)nc4c[n+]([O-])ccc43)cc1)cn2C(=O)N(C)C	0.14 mg/kg	–
COC(=O)c1cc(C#Cc2ccccc2)cc2c1c(C(=O)c1ccc(Cn3c(C)nc4cnccc43)cc1)cn2C(=O)N(C)C	0.004 mg/kg	0.6 mg/kg
Cc1nc2cnccc2n1CC(=O)c1cn(C(=O)N(C)C)c2cc(-c3ccc(F)cc3)ccc12	> 1 mg/kg	–
Cc1nc2cnccc2n1Cc1ccc(C(=O)c2cn(C(=O)N(C)C)c3cccc(O)c23)cc1	> 1 mg/kg	–
Cc1nc2cnccc2n1Cc1ccc(C(=O)c2cn(C(=O)N(C)C)c3cccc(C(=O)O)c23)cc1	> 1 mg/kg	–
CNC(=O)n1cc(C(=O)c2ccc(Cn3c(C)nc4cnccc43)cc2)c2c(C(=O)OC)cccc21	0.007 mg/kg	–
COC(=O)c1cccc2c1c(C(=O)c1ccc(Cn3c(C)nc4cnccc43)cc1)cn2C(=O)N(C)C	–	0.22 mg/kg
COC(=O)c1ccc(C(=O)OC)c2c(C(=O)c3ccc(Cn4c(C)nc5cnccc54)cc3)c[nH]c12	0.035 mg/kg	0.71 mg/kg
COC(=O)c1cccc2c1c(C(=O)c1ccc(Cn3c(C)nc4cnccc43)s1)cn2C(=O)N(C)C	0.12 mg/kg	–
Cc1cccc2c1c(C(=O)c1ccc(Cn3c(C)nc4cnccc43)cc1)cn2C(=O)N(C)C	0.004 mg/kg	0.2 mg/kg
COC(=O)c1cccc2c1c(C(=O)c1ccc(Cn3c(C)nc4c(O)nccc43)cc1)cn2C(=O)N(C)C	0.25 mg/kg	–
Cc1nc2cnccc2n1Cc1ccc(C(=O)c2c[nH]c3cc(-c4ccc(F)cc4)ccc23)cc1	1.3 mg/kg	–
COc1cccc2c1c(C(=O)c1ccc(Cn3c(C)nc4cnccc43)cc1)cn2C(=O)N(C)C	0.007 mg/kg	0.22 mg/kg
COC(=O)c1cc(-c2ccc(F)cc2)cc2c1c(C(=O)c1ccc(Cn3c(C)nc4cnccc43)cc1)cn2C(=O)N(C)C	0.002 mg/kg	0.64 mg/kg
COC(=O)c1cccc2c1c(S(=O)(=O)c1ccc(Cn3c(C)nc4cnccc43)cc1)cn2C(=O)N(C)C	0.48 mg/kg	–
COC(=O)c1cccc2c1c(C(=O)c1ccc(Cn3c(C)nc4cnccc43)cc1)cn2CC(=O)N(C)C	0.012 mg/kg	2.4 mg/kg
COC(=O)c1cccc2c1c(C(=O)CCCCCn1c(C)nc3cnccc31)cn2C(=O)N(C)C	0.013 mg/kg	1.1 mg/kg
COC(=O)c1cc(Br)cc2c1c(C(=O)c1ccc(Cn3c(C)nc4cnccc43)cc1)cn2C(=O)N(C)C	0.009 mg/kg	0.83 mg/kg
COC(=O)c1cccc2c1c(C(=O)CCCCCCn1c(C)nc3cnccc31)cn2C(=O)N(C)C	> 1 mg/kg	–
Cc1ccc(C)c2c(C(=O)c3ccc(Cn4c(C)nc5cnccc54)cc3)c[nH]c12	0.054 mg/kg	–
COC(=O)c1cccc2c1c(C(=O)c1ccc(Cn3c(C)nc4cccnc43)cc1)cn2C(=O)N(C)C	1.2 mg/kg	–
COC(=O)c1cccc2c1c(C(=O)c1ccc(Cn3c(C)nc4ccccc43)cc1)cn2C(=O)N1CCCC1	1 mg/kg	–
COC(=O)c1cccc2c1c(C(=O)c1ccc(Cn3c(C)nc4ccccc43)cc1)cn2C(=O)N(C)C	> 1 mg/kg	–
COC(=O)c1cccc2c1c(C(=O)c1ccc(Cn3c(C)nc4cnccc43)c(F)c1)cn2C(=O)N(C)C	0.006 mg/kg	0.36 mg/kg

SMILES	ED50 [1]	ED50 [2]
Cc1nc2cnccc2n1Cc1ccc(C(=O)c2cn(C(=O)N(C)C)c3cccc(Br)c23)cc1	0.007 mg/kg	0.13 mg/kg
COC(=O)c1cccc2c1c(C(=O)Cc1ccc(-n3c(C)nc4cnccc43)cc1)cn2C(=O)N(C)C	0.005 mg/kg	0.17 mg/kg
C#Cc1cccc2c1c(C(O)c1ccc(Cn3c(C)nc4cnccc43)c(F)c1)cn2C(=O)N(C)C (stereo not given)	0.007 mg/kg	–
C#Cc1cccc2[nH]cc(C(=O)c3ccc(Cn4c(C)nc5cnccc54)c(F)c3)c12	0.018 mg/kg	–
COC(=O)c1cccc2c1c(C(=O)CN1CCC(n3c(C)nc4cnccc43)CC1)cn2C(=O)N(C)C	0.006 mg/kg	> 1 mg/kg
CCOCCn1cc(C(=O)c2ccc(Cn3c(C)nc4cnccc43)cc2)c2c(C(=O)OC)cccc21	0.012 mg/kg	1.1 mg/kg
COC(=O)c1cccc2c1c(C(=O)c1ccc(Cn3c(C)nc4cnccc43)cc1)cn2C(N)=O	0.12 mg/kg	–
Cc1[nH]c2ccccc2c1C(=O)c1ccc(Cn2c(C)nc3cnccc32)cc1	> 1 mg/kg	–
Cc1nc2cnccc2n1Cc1ccc(C(=O)c2cn(C(=O)N(C)C)c3cccc(OC(=O)N(C)C)c23)cc1	0.005 mg/kg	0.34 mg/kg
Cc1nc2cnccc2n1Cc1ccc(C(=O)c2cn(C(=O)N(C)C)c3cccc(Cl)c23)cc1	0.008 mg/kg	0.12 mg/kg
Cc1nc2cnccc2n1CCCN(C)CC(=O)c1cn(C(=O)N(C)C)c2cc(-c3ccc(F)cc3)ccc12	> 1 mg/kg	–
COC(=O)c1cc(-c2cc3ccccc3o2)cc2c1c(C(=O)c1ccc(Cn3c(C)nc4cnccc43)cc1)cn2C(=O)N(C)C	0.011 mg/kg	–
CCOCCn1cc(C(=O)CN2CCC(n3c(C)nc4cnccc43)CC2)c2c(Cl)cccc21	0.068 mg/kg	–
Cc1nc2cnccc2n1CN1CCN(S(=O)(=O)c2cn(C(=O)N(C)C)c3cc(-c4ccc(F)cc4)ccc23)CC1	0.019 mg/kg	–
COC(=O)c1[nH]c2cccc(OC)c2c1C(=O)c1ccc(Cn2c(C)nc3cnccc32)cc1	0.65 mg/kg	–
COC(=O)c1cccc2c1c(C(=O)C1CCC(Cn3c(C)nc4cnccc43)CC1)cn2C(=O)N(C)C (stereo not given)	0.02 mg/kg	> 1 mg/kg
Cc1nc2cnccc2n1Cc1ccc(C(=O)c2cn(C(=O)N(C)C)c3cccc(F)c23)cc1	0.18 mg/kg	–
C#Cc1cccc2c1c(C(=O)c1ccc(Cn3c(C)nc4cnccc43)c(F)c1)cn2C(=O)NC	0.006 mg/kg	–
Cc1nc2cnccc2n1Cc1ccc(C(=O)c2cn(C(=O)N(C)C)c3cccc(C(=O)OC(C)C)c23)cc1	0.006 mg/kg	–
Cc1nc2cnccc2n1Cc1ccc(C(=O)c2c[nH]c3c(-c4ccc(F)cc4)cccc23)cc1	> 1 mg/kg	–
Cc1nc2cnccc2n1Cc1ccc(C(=O)c2cn(C(=O)N(C)C)c3ccccc23)cc1	0.18 mg/kg	–
COC(=O)c1cccc2c1c(C(=O)c1ccc(Cn3c(C)nc4cnccc43)cc1)cn2S(=O)(=O)N(C)C	0.074 mg/kg	–
Cc1nc2cnccc2n1Cc1ccc(C(=O)c2cn(C(=O)N(C)C)c3cccc(-c4ccco4)c23)cc1	0.007 mg/kg	0.79 mg/kg
Cc1nc2cnccc2n1Cc1ccc(S(=O)(=O)c2cn(C(=O)N(C)C)c3ccccc23)cc1	> 1 mg/kg	–
Cc1cccc2c1c(C(=O)CN1CCC(n3c(C)nc4cnccc43)CC1)cn2C(=O)N(C)C	0.005 mg/kg	0.14 mg/kg
COC(=O)c1cccc2c1c(C(=O)c1ccc(Cn3c(C)nc4c(C)nc(C)cc43)cc1)cn2C(=O)N(C)C	> 1 mg/kg	–

SMILES	ED50 [1]	ED50 [2]
Cc1nc2cnccc2n1Cc1ccc(C(=O)c2cn(C(=O)N(C)C)c3cccc(C(=O)N(C)C)c23)cc1	0.028 mg/kg	1.3 mg/kg
C#Cc1cccc2c1c(C(=O)c1ccc(Cn3c(C)nc4cnccc43)cc1)cn2C(=O)N(C)C	0.003 mg/kg	0.14 mg/kg
COC(=O)c1cccc2c1c(C(=O)c1ccc(Cn3c(C)nc4cnccc43)cc1)cn2S(=O)(=O)C(C)C	0.12 mg/kg	–
Cc1nc2cnccc2n1Cc1ccc(C(=O)c2cn(C(=O)N(C)C)c3cccc(C(=O)OCc4ccccc4)c23)cc1	0.12 mg/kg	–
COC(=O)c1cccc2[nH]cc(C(=O)c3ccc(Cn4c(C)nc5cnccc54)cc3)c12	0.15 mg/kg	–
CCc1cccc2c1c(C(=O)c1ccc(Cn3c(C)nc4cnccc43)cc1)cn2C(=O)N(C)C	0.003 mg/kg	0.078 mg/kg
COC(=O)c1cccc2c1c(C(=O)CCCCn1c(C)nc3cnccc31)cn2C(=O)N(C)C	> 1 mg/kg	–
Cc1nc2cnccc2n1Cc1ccc(C(=O)c2cn(C(=O)N(C)C)c3cccc(C#N)c23)cc1	0.23 mg/kg	–
Cc1nc2cnccc2n1CCCCCC(=O)c1cn(C(=O)N(C)C)c2cccc(-c3ccc(F)cc3)c12	0.005 mg/kg	> 1 mg/kg
Cc1nc2cnccc2n1Cc1ccc(C(=O)c2cn(C(=O)N(C)C)c3ccc(-c4ccc(F)cc4)cc23)cc1	> 1 mg/kg	–
COC(=O)c1cccc2c1c(C(=O)c1ccc(Cn3c(C)nc4cnccc43)cc1)cn2C(C)C	0.1 mg/kg	–
Cc1nc2cnccc2n1Cc1ccc(C(=O)c2cn(C(=O)N(C)C)c3cccc(NC(=O)c4ccccc4)c23)cc1	0.11 mg/kg	–
COC(=O)c1cccc2c1c(C(=O)c1ccc(Cn3c(C)nc4cnccc43)cc1)cn2CC(=O)C(C)(C)C	0.036 mg/kg	–
COC(=O)c1cccc2c1c(C(=O)c1ccc(Cn3c(C)nc4cnccc43)cc1)cn2C(=O)N1CCCC1	0.005 mg/kg	1.2 mg/kg
Cc1nc2ccncc2n1Cc1ccc(C(=O)c2cn(C(=O)N(C)C)c3cc(-c4ccc(F)cc4)ccc23)cc1	1.1 mg/kg	–
Cc1nc2cnccc2n1CCN1CCN(C(=O)c2cn(C(=O)N(C)C)c3cc(-c4ccc(F)cc4)ccc23)CC1	> 1 mg/kg	–
COC(=O)c1ccc2c(c1)c(C(=O)c1ccc(Cn3c(C)nc4cnccc43)cc1)cn2C(=O)N(C)C	> 1 mg/kg	–
COC(=O)c1cccc2c1c(C(=O)c1ccc(Cn3c(C)nc4ncccc43)cc1)cn2C(=O)N(C)C	0.026 mg/kg	–
Cc1nc2cnccc2n1Cc1ccc(C(=O)c2cn(C(=O)N(C)C)c3cccc(-c4ccc(F)cc4)c23)cc1	0.004 mg/kg	0.45 mg/kg
Cc1nc2cnccc2n1C1CCN(C(=O)c2cn(C(=O)N(C)C)c3cc(-c4ccc(F)cc4)ccc23)CC1	> 1 mg/kg	–
Cc1nc2cnccc2n1CC1CCN(C(=O)c2cn(C(=O)N(C)C)c3cc(-c4ccc(F)cc4)ccc23)CC1	0.022 mg/kg	2.2 mg/kg
Cc1nc2cnccc2n1Cc1csc(C(=O)c2cn(C(=O)N(C)C)c3cc(-c4ccc(F)cc4)ccc23)n1	0.35 mg/kg	–
Cc1nc2cnccc2n1Cc1ccc(C(=O)c2cn(C(=O)N(C)C)c3cccc(OC(=O)N(C)C)c23)cc1F	0.005 mg/kg	2.7 mg/kg
CCOC(=O)c1cccc2c1c(C(=O)c1ccc(Cn3c(C)nc4cnccc43)cc1)cn2C(=O)N(C)C	0.006 mg/kg	> 1 mg/kg
Cc1nc2ncccc2n1Cc1ccc(C(=O)c2cn(C(=O)N(C)C)c3cccc(Cl)c23)cc1	0.34 mg/kg	–
C#Cc1cccc2c1c(C(=O)c1ccc(Cn3c(C)nc4c[n+]([O-])ccc43)c(F)c1)cn2C(=O)N(C)C	> 0.5 mg/kg	–
